Reference: the supplement of paper PMC10307832

How the values were obtained:
Test in all cases: relative viability (nuclei count vs DMSO), 5 days (fraction); higher = more cells survive
[1] = compound: C1CC(C1)(C(=O)O)C(=O)O.[NH2-].[NH2-].[Pt+2] [Carboplatin] + O=C(c1cc(Cc2n[nH]c(=O)c3ccccc23)ccc1F)N1CCN(C(=O)C2CC2)CC1 [Olaparib] (partner 8 µM)
Procedure, shortened: (§1)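 The day after seeding in 1536-well plates, lung cancer cell lines were treated by pin tool with a single drug, or with a fixed anchor-drug dose together with five library-drug doses (not always all listed) in √10 steps. After 5 days, a combined fix-and-stain solution (final 0.05% Triton X-100, 1% formaldehyde, 1 ug/ml Hoechst) was added. Nuclei counted on 4× images gave relative viability as treated counts over vehicle counts, reported as the median of duplicate plates.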

[2] = compound: CC[C@H](C)N1C=C(C2=C(C=C(C=C21)C3=CN=C(C=C3)N4CCNCC4)C(=O)NCC5=C(C=C(NC5=O)C)C)C [GSK126] + O=C(CCCCCCC(=O)Nc1ccccc1)NO [Vorinostat] (partner 1 µM)
Procedure, shortened: as §1

[3] = compound: C1CC(C1)(C(=O)O)C(=O)O.[NH2-].[NH2-].[Pt+2] [Carboplatin] + O=C(CCCCCCC(=O)Nc1ccccc1)NO [Vorinostat] (partner 1 µM)
Procedure, shortened: as §1

[4] = compound: C1CC(C1)(C(=O)O)C(=O)O.[NH2-].[NH2-].[Pt+2] [Carboplatin] + NC(=O)Nc1cc(-c2cccc(F)c2)sc1C(=O)N[C@H]1CCCNC1 [AZD7762] (partner 0.2 µM)
Procedure, shortened: as §1

Cell Line	relative viability ([1]; first compound 0.08 µM)	relative viability ([1]; first compound 0.253 µM)	relative viability ([1]; first compound 0.8 µM)	relative viability ([1]; first compound 2.53 µM)	relative viability ([1]; first compound 8 µM)	relative viability ([2]; first compound 0.08 µM)	relative viability ([2]; first compound 0.253 µM)	relative viability ([2]; first compound 0.8 µM)	relative viability ([2]; first compound 2.53 µM)	relative viability ([2]; first compound 8 µM)	relative viability ([3]; first compound 0.08 µM)	relative viability ([3]; first compound 0.253 µM)	relative viability ([3]; first compound 0.8 µM)	relative viability ([3]; first compound 2.53 µM)	relative viability ([3]; first compound 8 µM)	relative viability ([4]; first compound 0.08 µM)	relative viability ([4]; first compound 0.253 µM)	relative viability ([4]; first compound 0.8 µM)	relative viability ([4]; first compound 2.53 µM)	relative viability ([4]; first compound 8 µM)
NCI-H650	0.419	0.388	0.37	0.365	0.285	0.482	0.412	0.411	0.403	0.487	0.504	0.457	0.503	0.366	0.275	0.985	0.948	0.778	0.863	0.721
NCI-H460	0.444	0.47	0.253	0.188	0.187	0.89	0.718	0.75	0.699	0.656	0.761	0.629	0.582	0.235	0.076	0.612	0.53	0.524	0.279	0.111
PC-3 [JPC-3]	1.23	1.14	1.12	1.04	0.835	0.949	0.82	0.806	1	0.825	1.14	0.799	0.9	0.765	0.685	1.04	0.732	0.836	0.706	0.553
NCI-H1648	1.39	1.29	1.21	0.765	0.897	0.496	0.401	0.467	0.5	0.548	0.527	0.544	0.434	0.351	0.357	0.662	0.62	0.538	0.696	0.539
NCI-H2085	0.817	0.844	0.761	0.786	0.687	0.851	0.813	0.804	0.841	0.948	0.803	0.764	0.839	0.761	0.711	1.02	1.01	0.973	0.995	0.909
EKVX	0.856	0.81	0.872	0.734	0.671	0.778	0.659	0.708	0.687	0.574	0.746	0.659	0.682	0.676	0.693	0.743	0.757	0.737	0.739	0.537
NCI-H2405	0.965	0.926	0.841	0.821	0.66	1.12	0.933	1.01	1.05	1.04	1.19	0.983	1.12	1.11	0.767	0.832	0.757	0.757	0.646	0.454
ABC-1	1.09	0.759	0.781	0.654	0.553	1.19	1.08	1.05	1.11	1.01	1.53	1.33	0.834	1.18	0.407		0.674	0.91	0.77	0.66
